In brackets after ≈: the same amount, converted by molar mass.

The target of assay [1] is T1, Peptide deformylase (Staphylococcus aureus) (UniProt P68826).
T1 sequence (whole entry): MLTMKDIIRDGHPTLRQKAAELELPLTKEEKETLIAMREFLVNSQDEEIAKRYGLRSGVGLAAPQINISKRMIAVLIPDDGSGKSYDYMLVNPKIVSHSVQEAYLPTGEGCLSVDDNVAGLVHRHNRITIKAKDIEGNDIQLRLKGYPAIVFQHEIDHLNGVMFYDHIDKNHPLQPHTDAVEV
The assay is described as follows: (§1) Inhibition of Staphylococcus aureus peptide deformylase using N-formylmethionine-alanine-serine as substrate by spectrophotometry.

Assay [2] concerns the target T2, Peptide deformylase (Staphylococcus aureus, UniProt P68826).
T2 sequence (P68826 whole entry): T1 sequence (whole entry)
The assay is described as §1.

Assay [3] has as its system Staphylococcus aureus. The assay can be described thus: Antibacterial activity against Staphylococcus aureus RN4220 after 18 hrs by broth microdilution method. As to conditions: RN4220, 18 h. Format: functional. On the technique in general: In broth dilution the organism is exposed to a series of concentrations in liquid medium.
The test system of assay [4] is Staphylococcus aureus. The assay can be described thus: Antibacterial activity against methicillin-resistant Staphylococcus aureus CCARM 3167 after 18 hrs by broth microdilution method. Format: functional. As to conditions: CCARM 3167, 18 h.
Assay [5] deals with Staphylococcus aureus. The assay is described as follows: Antibacterial activity against quinolone-resistant Staphylococcus aureus CCARM 3505 after 18 hrs by broth microdilution method. Format: functional. As to conditions: CCARM 3505, 18 h.

The IC50 is the midpoint of a concentration-inhibition curve. As usually defined, the MIC is the smallest concentration in the dilution series that meets the test's criterion for growth inhibition. A high value points to a less susceptible organism. As for `COCc1c(O)c(O)c(O)c2c1CO[C@H]2[C@H]1OC(O)c2c(C)c(O)c(O)c(O)c21` (mixture of isomers) [FLAVIMYCIN B], the inhibition result in assay [1] is “Dose-dependent effect”. Further, it took 100 µM to reach half-maximal inhibition in assay [2] (IC50). Besides, the MIC in assay [3], in assay [4] and in assay [5] was 64 µg/mL throughout.
For `Cc1c(O)c(O)c(O)c2c1CO[C@H]2[C@H]1OC(O)c2c(C)c(O)c(O)c(O)c21` (mixture of isomers) [FLAVIMYCIN A], the inhibition result in assay [1] was “Dose-dependent effect”. The compound also returned an IC50 in assay [2] of 35.8 µM. The MIC in assay [3], in assay [4] and in assay [5] was 32 µg/mL in each case.
Regarding `CCCCC[C@H](CC(=O)NO)C(=O)N[C@H](C(=O)N1CCC[C@H]1CO)C(C)C` [ACTINONIN], the midpoint of inhibition in assay [2], the IC50, lay at 0.02 µM. The MIC in assay [3], in assay [4] and in assay [5] was 4 µg/mL (≈ 10.4 µM) throughout.

Source of the values: ChEMBL document CHEMBL2010710, “Flavimycins A and B, dimeric 1,3-dihydroisobenzofurans with peptide deformylase inhibitory activity from Aspergillus flavipes” (J Nat Prod, 2012).
